We go through 20 compounds from patent US9133157B2, “HIV protease inhibitors” (Merck Canada Inc., priority 2011, dated 2015).

pIC50: −log10 of the molar value.

The term pIC50 denotes −log10 of the IC50, conventionally taken in molar units.

The target in this assay is WT HIV-1 protease (Human immunodeficiency virus type 1 group M subtype B (isolate HXB2) (HIV-1), UniProt P04585). Nature of the assay: Assay for inhibition of microbial expressed HIV protease (Procedure A, peptide substrate, HPLC fluorescence detection). In kind it is biochemical. Conditions: WT HIV-1 protease 10 pM, substrate 400 micromolar, pH 5.5, 30 min preincubation, 1 hour at 30° C.; read-out: Enzyme inhibition IC50. Put shortly:
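E. coli-expressed enzyme preincubated 30 min at room temperature with compound in 50 mM sodium acetate pH 5.5, 100 mM NaCl, 0.1% BSA. Reaction ran 1 h at 30° C with 400 micromolar Val-Ser-Gln-Asn-(betanaphthyl)Ala-Pro-Ile-Val substrate and 10 picomolar protease. After phosphoric acid quench, product was measured by C18 HPLC with fluorescence (ex 270/em 330 nm).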
On to `COC(=O)N[C@H](C(=O)N[C@H](c1ccc([C@@H](CO)N(CCC(C)(C)C)S(=O)(=O)c2ccc3scnc3c2)s1)C(F)(F)F)C(c1ccccc1)c1ccccc1` [Example 91, N-[(1S)-1-(5-{(1R)-1-[(1,3-benzothiazol-5-ylsulfonyl)(3,3-dimethylbutyl)amino]-2-hydroxyethyl}thiophen-2-yl)-2,2,2-trifluoroethyl]-Nα-(methoxycarbonyl)-β-phenyl-L-phenylalaninamide], for which the negative-log IC50 (pIC50) was 8.54.
As for `COC(=O)N[C@H](C(=O)N[C@H](c1ccc([C@@H](CO)N(CCC(C)(C)C)S(=O)(=O)c2ccc(-c3ccn(C)n3)cc2)s1)C(F)(F)F)C(c1ccccc1)c1ccccc1` [Example 92], the pIC50 was 7.18.
With `COC(=O)N[C@H](C(=O)N[C@H](c1ccc([C@@H](CO)N(CCC(C)(C)C)S(=O)(=O)c2ccc3[nH]ncc3c2)s1)C(F)(F)F)C(c1ccccc1)c1ccccc1` [Example 93, N-[(1S)-1-(5-{(1R)-1-[(3,3-dimethylbutyl)(1H-indazol-5-ylsulfonyl)amino]-2-hydroxyethyl}thiophen-2-yl)-2,2,2-trifluoroethyl]-Nα-(methoxycarbonyl)-β-phenyl-L-phenylalaninamide] the figure was 9.51.
With `COC(=O)N[C@H](C(=O)N[C@H](c1ccc([C@@H](CO)N(CCC(C)(C)C)S(=O)(=O)c2ccc3cc[nH]c3c2)s1)C(F)(F)F)C(c1ccccc1)c1ccccc1` [Example 94, N-[(1S)-1-(5-{(1R)-1-[(3,3-dimethylbutyl)(1H-indol-6-ylsulfonyl)amino]-2-hydroxyethyl}thiophen-2-yl)-2,2,2-trifluoroethyl]-Nα-(methoxycarbonyl)-β-phenyl-L-phenylalaninamide] the figure was 10.05; with `COC(=O)N[C@H](C(=O)N[C@H](c1ccc([C@@H](CO)N(CCC(C)(C)C)S(=O)(=O)c2cc3ccccc3s2)s1)C(F)(F)F)C(c1ccccc1)c1ccccc1` [Example 95, N-[(1S)-1-(5-{(1R)-1-[(1-benzothiophen-2-ylsulfonyl)(3,3-dimethylbutyl)amino]-2-hydroxyethyl}thiophen-2-yl)-2,2,2-trifluoroethyl]-Nα-(methoxycarbonyl)-β-phenyl-L-phenylalaninamide], 8.16; with `COC(=O)N[C@H](C(=O)N[C@H](c1ccc([C@@H](CO)N(CCC(C)(C)C)S(=O)(=O)c2ccc3ocnc3c2)s1)C(F)(F)F)C(c1ccccc1)c1ccccc1` [Example 96, N-[(1S)-1-(5-{(1R)-1-[(1,3-benzoxazol-5-ylsulfonyl)(3,3-dimethylbutyl)amino]-2-hydroxyethyl}thiophen-2-yl)-2,2,2-trifluoroethyl]-Nα-(methoxycarbonyl)-β-phenyl-L-phenylalaninamide], 8.71.
With `COC(=O)N[C@H](C(=O)N[C@H](c1ccc([C@@H](CO)N(CCC(C)(C)C)S(=O)(=O)c2ccc(N)c(F)c2)s1)C(F)(F)F)C(c1ccccc1)c1ccccc1` [Example 97, N-[(1S)-1-{5-[(1R)-1-{[(4-amino-3-fluorophenyl)sulfonyl](3,3-dimethylbutyl)amino}-2-hydroxyethyl]thiophen-2-yl}-2,2,2-trifluoroethyl]-Nα-(methoxycarbonyl)-β-phenyl-L-phenylalaninamide] the figure was 8.91.
`COC(=O)N[C@H](C(=O)N[C@H](c1ccc([C@@H](CO)N(CCC(C)(C)C)S(=O)(=O)c2ccc(N)cc2F)s1)C(F)(F)F)C(c1ccccc1)c1ccccc1` [Example 98, N-[(1S)-1-{5-[(1R)-1-{[(4-amino-2-fluorophenyl)sulfonyl](3,3-dimethylbutyl)amino}-2-hydroxyethyl]thiophen-2-yl}-2,2,2-trifluoroethyl]-Nα-(methoxycarbonyl)-β-phenyl-L-phenylalaninamide]: the negative logarithm of the IC50 (pIC50) is 9.36.
With `COC(=O)N[C@H](C(=O)N[C@H](c1ccc([C@@H](CO)N(CCC(C)(C)C)S(=O)(=O)c2cn3ccnc3cn2)s1)C(F)(F)F)C(c1ccccc1)c1ccccc1` [Example 99, N-[(1S)-1-(5-{(1R)-1-[(3,3-dimethylbutyl)(imidazo[1,2-a]pyrazin-6-ylsulfonyl)amino]-2-hydroxyethyl}thiophen-2-yl)-2,2,2-trifluoroethyl]-Nα-(methoxycarbonyl)-β-phenyl-L-phenylalaninamide] the figure was 8.47; with `COC(=O)N[C@H](C(=O)N[C@H](c1ccc([C@@H](CO)N(CCC(C)(C)C)S(=O)(=O)c2ccc3ncsc3c2)s1)C(F)(F)F)C(c1ccccc1)c1ccccc1` [Example 100, N-[(1S)-1-(5-{(1R)-1-[(1,3-benzothiazol-6-ylsulfonyl)(3,3-dimethylbutyl)amino]-2-hydroxyethyl}thiophen-2-yl)-2,2,2-trifluoroethyl]-Nα-(methoxycarbonyl)-β-phenyl-L-phenylalaninamide], 9.05.
Next, `COC(=O)N[C@H](C(=O)N[C@H](c1ccc([C@@H](CO)N(CCC(C)(C)C)S(=O)(=O)c2ccc3nn[nH]c3c2)s1)C(F)(F)F)C(c1ccccc1)c1ccccc1` [Example 101, N-[(1S)-1-(5-{(1R)-1-[(1H-benzotriazol-6-ylsulfonyl)(3,3-dimethylbutyl)amino]-2-hydroxyethyl}thiophen-2-yl)-2,2,2-trifluoroethyl]-Nα-(methoxycarbonyl)-β-phenyl-L-phenylalaninamide]: 9.08.
For the compound `COC(=O)N[C@H](C(=O)N[C@H](c1ccc([C@@H](CO)N(CCC(C)(C)C)S(=O)(=O)c2ccc3cn[nH]c3c2)s1)C(F)(F)F)C(c1ccccc1)c1ccccc1` [Example 102, N-[(1S)-1-(5-{(1R)-1-[(3,3-dimethylbutyl)(1H-indazol-6-ylsulfonyl)amino]-2-hydroxyethyl}thiophen-2-yl)-2,2,2-trifluoroethyl]-Nα-(methoxycarbonyl)-β-phenyl-L-phenylalaninamide], the negative logarithm of the IC50 (pIC50) is 9.20.
With `COC(=O)N[C@H](C(=O)N[C@H](c1ccc([C@@H](CO)N(CCC(C)(C)C)S(=O)(=O)c2ccc3[nH]ccc3c2)s1)C(F)(F)F)C(c1ccccc1)c1ccccc1` [Example 103, N-[(1S)-1-(5-{(1R)-1-[(3,3-dimethylbutyl)(1H-indol-5-ylsulfonyl)amino]-2-hydroxyethyl}thiophen-2-yl)-2,2,2-trifluoroethyl]-Nα-(methoxycarbonyl)-β-phenyl-L-phenylalaninamide] the figure was 8.21; with `COC(=O)N[C@H](C(=O)N[C@H](c1ccc([C@@H](CO)N(CCC(F)(F)F)S(=O)(=O)c2ccc3ncsc3c2)s1)C(F)(F)F)C(c1ccccc1)c1ccccc1` [Example 104, N-[(1S)-1-(5-{(1R)-1-[(1,3-benzothiazol-6-ylsulfonyl)(3,3,3-trifluoropropyl)amino]-2-hydroxyethyl}thiophen-2-yl)-2,2,2-trifluoroethyl]-Nα-(methoxycarbonyl)-β-phenyl-L-phenylalaninamide], 9.07; with `COC(=O)N[C@H](C(=O)N[C@H](c1ccc([C@@H](CO)N(CCCC(F)(F)F)S(=O)(=O)c2ccc3ncsc3c2)s1)C(F)(F)F)C(c1ccccc1)c1ccccc1` [Example 105, N-[(1S)-1-(5-[(1R)-1-[(1,3-benzothiazol-6-ylsulfonyl)(4,4,4-trifluorobutyl)amino]-2-hydroxyethyl}thiophen-2-yl)-2,2,2-trifluoroethyl]-Nα-(methoxycarbonyl)-β-phenyl-L-phenylalaninamide], 8.75.
Next, `[2H]C([2H])([2H])C([2H])(N([C@H](CO)c1ccc([C@@H](NC(=O)[C@@H](NC(=O)OC)C(c2ccccc2)c2ccccc2)C(F)(F)F)s1)S(=O)(=O)c1ccc2ncsc2c1)C([2H])([2H])[2H]` [Example 106, N-[(1S)-1-{5-[(1R)-1-{(1,3-benzothiazol-6-ylsulfonyl)[(2-^2H)propan-2-yl]amino}-2-hydroxyethyl]thiophen-2-yl}-2,2,2-trifluoroethyl]-Nα-(methoxycarbonyl)-β-phenyl-L-phenylalaninamide]: 7.46; `[2H]C([2H])([2H])C([2H])(N([C@H](CO)c1ccc([C@@H](NC(=O)[C@@H](NC(=O)OC)C(c2ccccc2)c2ccccc2)C(F)(F)F)s1)S(=O)(=O)c1ccc2[nH]ncc2c1)C([2H])([2H])[2H]` [Example 107, Nα-(methoxycarbonyl)-β-phenyl-N-[(1S)-2,2,2-trifluoro-1-{5-[(1R)-2-hydroxy-1-1(1H-indazol-5-ylsulfonyl)[(2-^2H)propan-2-yl]amino}ethyl]thiophen-2-yl}ethyl-L-phenylalaninamide]: 7.63.
Next, `[2H]C([2H])([2H])C([2H])(N([C@H](CO)c1ccc([C@@H](NC(=O)[C@@H](NC(=O)OC)C(c2ccccc2)c2ccccc2)C(F)(F)F)s1)S(=O)(=O)c1ccc(N)cc1F)C([2H])([2H])[2H]` [Example 108, N-[(1S)-1-{5-[(1R)-1-{[(4-amino-2-fluorophenyl)sulfonyl][(2-^2H)propan-2-yl]amino}-2-hydroxyethyl]thiophen-2-yl}-2,2,2-trifluoroethyl]-Nα-(methoxycarbonyl)-β-phenyl-L-phenylalaninamide]: 8.03; `COC(=O)N[C@H](C(=O)N[C@H](c1ccc([C@@H](CO)N(C(C)C)S(=O)(=O)c2ccc(C(N)=O)cc2)s1)C(F)(F)F)C(c1ccccc1)c1ccccc1` [Example 109, methyl [(1S)-2-{[(1)-1-(5-{(1R)-1-[{[4-(aminocarbonyl)phenyl]sulfonyl}(isopropyl)amino]-2-hydroxyethyl}-2-thienyl)-2,2,2-trifluoroethyl]amino}-1-(diphenylmethyl)-2-oxoethyl]carbamate]: 7.50; `COC(=O)N[C@H](C(=O)N[C@H](c1ccc([C@@H](CO)N(CCC(C)(C)C)S(=O)(=O)c2ccc(-n3ncnn3)cc2)s1)C(F)(F)F)C(c1ccccc1)c1ccccc1` [Example 110]: 7.98.
